From the supplement of paper PMC10307832

How the values were obtained:
Test in all cases: relative viability (nuclei count vs DMSO), 5 days (fraction); higher = more cells survive
IDH-C35 = compound: Cc1ccccc1C(C(=O)NC1CCCCC1)N(C(=O)Cn1ccnc1C)c1cccc(F)c1 [IDH-C35]
Outline: (§1)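 A plate was accepted only when its control CV was below 25% and the cells had doubled at least once. Viability is defined from nuclear counts as treated wells divided by vehicle wells, with the median taken across plates. That median covers lung cancer cell lines grown in 1536-well plates, dosed by pinning at five √10-spaced library-drug concentrations, and counted in MetaXpress from 4× Hoechst images after 5 days.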

[1] = compound: CC1=C(C(=NN1)C)CC2=C(C3=C(S2)N(C(=O)N(C3=O)C)CC(C)C)C(=O)N4C[C@@H](CO4)O
Outline: as §1

IDH-C35 + Pemetrexed = compound: Cc1ccccc1C(C(=O)NC1CCCCC1)N(C(=O)Cn1ccnc1C)c1cccc(F)c1 [IDH-C35] + Nc1nc2[nH]cc(CCc3ccc(C(=O)N[C@@H](CCC(=O)O)C(=O)O)cc3)c2c(=O)[nH]1 [Pemetrexed] (partner 0.2 µM)
Outline: (§2)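 Five library-drug doses in √10 steps were combined with a fixed anchor-drug dose, or a single drug was given alone, by pin tool to lung cancer cell lines in 1536-well plates the day after seeding. Nuclei were stained and counted after 5 days. Relative viability is the nuclei count in treated wells over that in vehicle wells, taken as the median of duplicate plates.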

[2] = compound: CC1=C(C(=NN1)C)CC2=C(C3=C(S2)N(C(=O)N(C3=O)C)CC(C)C)C(=O)N4C[C@@H](CO4)O + COc1cccc2cc(-c3nc([C@H]4CC[C@H](C(=O)O)CC4)n4ncnc(N)c34)[nH]c12 [OSI-027] (partner 0.5 µM)
Outline: as §2

Row | Cell Line | relative viability (IDH-C35; 0.08 µM) | relative viability (IDH-C35; 0.253 µM) | relative viability (IDH-C35; 0.8 µM) | relative viability (IDH-C35; 2.53 µM) | relative viability (IDH-C35; 8 µM) | relative viability ([1]; 0.0025 µM) | relative viability ([1]; 0.007906 µM) | relative viability ([1]; 0.025 µM) | relative viability ([1]; 0.07906 µM) | relative viability ([1]; 0.25 µM) | relative viability (IDH-C35 + Pemetrexed; first compound 0.08 µM) | relative viability (IDH-C35 + Pemetrexed; first compound 0.253 µM) | relative viability (IDH-C35 + Pemetrexed; first compound 0.8 µM) | relative viability (IDH-C35 + Pemetrexed; first compound 2.53 µM) | relative viability (IDH-C35 + Pemetrexed; first compound 8 µM) | relative viability ([2]; first compound 0.0025 µM) | relative viability ([2]; first compound 0.007906 µM) | relative viability ([2]; first compound 0.025 µM) | relative viability ([2]; first compound 0.07906 µM) | relative viability ([2]; first compound 0.25 µM)
1 | HCC-44 | 0.949 | 0.947 | 0.971 | 0.998 | 0.942 | 1.01 | 1.01 | 0.992 | 0.931 | 1.05 | 0.6 | 0.639 | 0.658 | 0.633 | 0.667 | 0.676 | 0.376 | 0.413 | 0.516 | 0.747
2 | HCC-78 | 0.925 | 0.979 | 0.896 | 0.998 | 0.928 | 1.08 | 1.14 | 0.845 | 0.91 | 0.832 | 0.918 | 0.918 | 0.897 | 0.912 | 0.943 | 0.388 | 0.38 | 0.343 | 0.357 | 0.374
3 | HCC-366 | 1.04 | 1.04 | 0.97 | 0.935 | 0.934 | 0.986 | 1.03 | 1.03 | 0.988 | 1.04 | 0.143 | 0.156 | 0.171 | 0.188 | 0.176 | 0.937 | 1.16 | 1.18 | 1.09 | 0.933
4 | HCC-827 | 1.06 | 0.934 | 1.04 | 0.991 | 1.02 | 0.904 | 1.08 | 1.06 | 1.04 | 1.06 | 0.279 | 0.266 | 0.269 | 0.248 | 0.238 | 0.812 | 0.793 | 0.756 | 0.759 | 0.952
5 | HOP-62 | 1.03 | 1.03 | 0.957 | 0.81 | 0.964 | 0.962 | 0.976 | 0.953 | 0.977 | 1.17 | 0.302 | 0.309 | 0.255 | 0.338 | 0.346 | 0.896 | 0.849 | 0.756 | 0.763 | 0.909
6 | IA-LM | 0.947 | 1.02 | 0.858 | 0.887 | 0.999 | 0.945 | 0.998 | 0.96 | 1.02 | 1.07 |  |  |  |  |  |  |  |  |  | 
7 | LC-2-ad | 0.993 | 1 | 0.966 | 0.701 | 0.898 | 0.982 | 0.93 | 0.956 | 1.04 | 1.04 | 0.265 | 0.285 | 0.275 | 0.266 | 0.278 | 0.952 | 0.782 | 0.973 | 0.934 | 0.821
8 | LCLC-97TM1 | 0.807 | 1.03 | 0.936 |  | 0.91 | 1.05 | 1.13 | 0.98 | 0.957 | 1.02 | 0.216 | 0.173 | 0.201 |  | 0.145 | 0.665 | 0.515 | 0.513 | 0.548 | 0.564
9 | LCLC-103H | 0.968 | 0.957 | 0.933 | 1.02 | 0.913 | 1.1 | 1.06 | 1 | 0.919 | 0.973 | 0.452 | 0.49 | 0.467 | 0.48 | 0.428 | 0.529 | 0.466 | 0.467 | 0.496 | 0.512
10 | LK-2 | 0.881 | 0.995 | 0.996 | 0.998 | 0.943 | 1 | 1.03 | 0.818 | 0.804 | 0.898 | 0.259 | 0.322 | 0.255 | 0.22 | 0.202 | 0.201 | 0.184 | 0.204 | 0.189 | 0.228
11 | LOU-NH91 | 0.945 | 0.986 | 0.987 | 0.917 | 0.96 | 1 | 0.989 | 1.01 | 1.12 | 1.03 | 0.422 | 0.393 | 0.425 | 0.347 | 0.361 | 0.719 | 0.714 | 0.715 | 0.84 | 0.727
12 | LU99A | 1.04 | 0.992 | 0.895 | 0.919 | 0.964 | 0.968 | 0.995 | 0.887 | 1.03 | 0.893 | 0.191 | 0.216 | 0.173 | 0.187 | 0.191 | 0.339 | 0.335 | 0.347 | 0.309 | 0.294
13 | LXF-289 | 1.02 | 1 | 1.02 | 0.99 | 0.997 | 1.02 | 1.02 | 0.975 | 0.971 | 1.02 | 1.02 | 0.857 | 0.859 | 0.894 | 0.797 | 0.902 | 0.785 | 0.734 | 0.819 | 0.749
14 | NCI-H23 | 1 | 1.04 | 0.95 | 0.806 | 0.859 | 1.01 | 1.05 | 0.867 | 0.975 | 1.09 | 0.642 | 0.848 | 0.625 | 0.773 | 0.652 | 0.814 | 0.557 | 0.701 | 0.475 | 0.602
15 | NCI-H727 | 0.81 | 0.98 | 1.01 | 0.979 | 1.01 | 1.07 | 1 | 1 | 0.875 | 0.964 |  |  |  |  |  | 0.731 | 0.504 | 0.505 | 0.586 | 0.708
16 | NCI-H1299 | 1.04 | 0.952 | 1.01 | 0.991 | 1.01 | 1.01 | 1 | 0.952 | 1.01 | 1.03 |  |  |  |  |  |  |  |  |  | 
17 | NCI-H1623 | 0.969 | 0.975 | 0.95 | 1 | 1.04 | 1.02 | 0.899 | 1.01 | 1.01 | 0.955 |  |  |  |  |  | 0.525 | 0.414 | 0.447 | 0.424 | 0.506
18 | NCI-H1703 | 0.96 | 1.02 | 0.95 | 0.901 | 0.955 | 1.03 | 0.895 | 0.917 | 0.895 | 0.897 |  |  |  |  |  |  |  |  |  | 
